Measurements: ChEMBL document CHEMBL1129224, “Rapid decomposition of peroxynitrite by manganese porphyrin-antioxidant redox couples” (Bioorg Med Chem Lett, 1997)

Assays:
Type in all cases: ADME
[1] = The compound was evaluated for the rate of oxoMn (IV) reduction
[2] = The compound was evaluated for the apparent first-order rate of reaction of ONOO- with antioxidant in presence of catalyst
[3] = The compound was evaluated for the apparent first-order rate of reaction of ONOO- with antioxidant

| kred [1] [M⁻¹ s⁻¹] | k cat [2] [M⁻¹ s⁻¹] | kONOO- [3] [M⁻¹ s⁻¹] | SMILES |
| --- | --- | --- | --- |
| 54000000 | 2200000 | 88 | O=C1O[C@H]([C@@H](O)CO)C(O)=C1O [ASCORBIC ACID] |
| 130000 | 3200000 | 580 | N[C@@H](CCC(=O)N[C@@H](CS)C(=O)NCC(=O)O)C(=O)O [GLUTATHIONE] |
| 7000000 | 1100000 | 33 | Cc1c(C)c2c(c(C)c1O)CCC(C)(C(=O)O)O2 (centres undefined) [TROLOX] |
